Values of other authors as cited in article PMC9056484 (Advances in Therapy, 2022).
Read-outs that look alike come from different tables or passages of the source.

Assays:
[1] = test system: early Parkinson disease patients
early PD patients [2] = conditions: higher doses of pramipexole in early PD
early PD patients [3] = test system: early PD patients
[4] = test system: early Parkinson's disease patients
[5] = test system: Parkinson's disease patients; conditions: pramipexole monotherapy
dopamine D3 receptor = conditions: read-out: Ki, D3 receptor
[6] = test system: early Parkinson's disease patients; conditions: pramipexole 1.5 mg/day, 9 months
[7] = not given; remark: listed apart in the source
human albumin = conditions: concentration range 1–100 ng/ml
[8] = not given; remark: listed apart in the source
[9] = test system: Parkinson's disease patients; conditions: for effects on clinical progression (in words): delayed-start design trial
[10] = test system: early Parkinson disease patients; conditions: rasagiline 1 mg/day, Week 26
[11] = Pramipexole 1.5 mg, n = 54, STEP-UP
[12] = Pramipexole groups combined (1.5–6 mg), N = 213, STEP-UP
[13] = Pramipexole 0.5 mg BID, n = 81, PRAMI-BID
[14] = Pramipexole 0.5 mg TID, n = 80, PRAMI-BID
[15] = Pramipexole 0.75 mg BID, n = 73, PRAMI-BID

In the case of `NC1CCc2ccccc21` (centres unmarked) [1-aminoindan], the “MAO-B inhibition (in words)” value (MAO-B) is listed as “weak MAO-B inhibitor”.

For `CCCN[C@H]1CCc2nc(N)sc2C1` [Pramipexole], the “Adverse event: Confusion” value [1, 11] is given as 3 (5.6), the “Adverse event: Constipation” value [1, 11] is given as 4 (7.4) and the “Adverse event: Dizziness” value [1, 11] is given as 10 (18.5). The “Adverse event: Fatigue” value [1, 11] was 4 (7.4), the “Adverse event: Hallucination” value [1, 11] was 4 (7.4) and the “Adverse event: Headache” value [1, 11] was 5 (9.2). The “Adverse event: Insomnia” value [1, 11] was 2 (3.7), the “Adverse event: Nausea” value [1, 11] was 9 (16.7) and the “Adverse event: Somnolence” value [1, 11] was 9 (16.7). For the same compound, the “Adverse event: Confusion” value [1, 12] was 9 (4.2), the “Adverse event: Constipation” value [1, 12] was 23 (10.8) and the “Adverse event: Dizziness” value [1, 12] was 39 (18.3). The “Adverse event: Hallucination” value [1, 12] was 14 (6.6), the “Adverse event: Headache” value [1, 12] was 24 (11.3) and the “Adverse event: Insomnia” value [1, 12] was 16 (7.5). For the same compound, the “Adverse event: Nausea” value [1, 12] was 42 (19.7), the “Adverse event: Somnolence” value [1, 12] was 58 (27.2) and the patients with hallucinations ([1]; pramipexole 1.5 mg, within 10 weeks) was greater than 5%. For the same compound, the “improvement of Total UPDRS scores versus placebo” value ([1]; pramipexole 1.5 mg/day, Week 10) was 5.2 points, the “affinity for D1 receptors, times lower than that to D3 receptors” value (D1 receptors) was “around 200,000 times” and the “placebo-adjusted changes from baseline in ESS score” value (early PD patients [2]) was 1.0–2.1. For the same compound, the incidence of somnolence (early PD patients [3]; pramipexole pivotal studies in early PD) was 22%, the patients with hallucinations (early PD patients [3]; pramipexole up to 4.5 mg/day, early PD pivotal trials) was 16.5% and the “Adverse event: Abnormal dreams” value [4, 13] was 3 (3.7). For the same compound, the “Adverse event: Constipation” value [4, 13] was 8 (9.9), the “Adverse event: Dizziness” value [4, 13] was 9 (11.1) and the “Adverse event: Fatigue” value [4, 13] was 6 (7.4). For the same compound, the “Adverse event: Headache” value [4, 13] was 7 (8.6), the “Adverse event: Insomnia” value [4, 13] was 3 (3.7) and the “Adverse event: Nausea” value [4, 13] was 18 (22.2). The “Adverse event: Peripheral edema” value [4, 13] was 2 (2.5), the “Adverse event: Somnolence” value [4, 13] was 14 (17.3) and the “Adverse event: Abnormal dreams” value [4, 14] was 5 (6.3). The “Adverse event: Constipation” value [4, 14] was 5 (6.3), the “Adverse event: Dizziness” value [4, 14] was 9 (11.3) and the “Adverse event: Fatigue” value [4, 14] was 4 (5.0). For the same compound, the “Adverse event: Headache” value [4, 14] was 4 (5.0), the “Adverse event: Insomnia” value [4, 14] was 6 (7.5) and the “Adverse event: Nausea” value [4, 14] was 15 (18.8). For the same compound, the “Adverse event: Peripheral edema” value [4, 14] was 3 (3.8), the “Adverse event: Somnolence” value [4, 14] was 20 (25.0) and the “Adverse event: Abnormal dreams” value [4, 15] was 2 (2.7). For the same compound, the “Adverse event: Constipation” value [4, 15] was 7 (9.6), the “Adverse event: Dizziness” value [4, 15] was 5 (6.8) and the “Adverse event: Fatigue” value [4, 15] was 7 (9.6). The “Adverse event: Headache” value [4, 15] was 6 (8.2), the “Adverse event: Insomnia” value [4, 15] was 11 (15.1) and the “Adverse event: Nausea” value [4, 15] was 11 (15.1). The “Adverse event: Peripheral edema” value [4, 15] was 4 (5.5), the “Adverse event: Somnolence” value [4, 15] was 16 (21.9) and the “Effects on PDQ-39 Total scores versus placebo (in words)” value ([4]; pramipexole 1.0 mg/day (0.5 mg BID), P = 0.32) was “not significantly different from placebo”. For the same compound, the “PDQ-39 Total scores, treatment effect vs. placebo” value ([4]; pramipexole 1.5 mg/day (0.75 mg BID or 0.5 mg TID), P ≤ 0.05) was 2.1 points, the “placebo-adjusted improvements in Total UPDRS” value ([4]; pramipexole 1–1.5 mg/day, Week 12) was 4.4–4.7 points and the “disease-modifying effect (in words)” value [5] was “did not find evidence of a disease-modifying effect”. The Ki (dopamine D3 receptor) was 0.5 nM, the protein bound was less than 20% and the “improvement of Total UPDRS scores versus placebo” value [6] was 4.8 points. The absolute oral bioavailability [7] was greater than 90% and the “absorbed dose eliminated unchanged” value ([7]; almost exclusively by the kidneys) was greater than 90%.

For `C#CCN[C@@H]1CCc2ccccc21` [Rasagiline, N-propargyl-1-(R)-aminoindan], the “mean extent of binding to human albumin” value (human albumin) is given as 61–63%, the absolute bioavailability [8] is given as “about 36%” and the “time to peak plasma concentration (Cmax)” value [8] is given as “approximately 1 hour”. For the same compound, the “effects on clinical progression (in words)” value ([9]; rasagiline 1.0 mg) was “statistically significant effects on clinical progression”, the “improvement of Total UPDRS scores versus placebo” value ([9]; rasagiline 1 mg/day, ~ Week 36) was 3.0 points and the “effects on clinical progression (in words)” value ([9]; rasagiline 2.0 mg) was “but not 2.0 mg, had statistically significant effects”. The “MAO-B inhibition (in words)” value (MAO-B) was “potent and irreversible inhibitor of MAO-B” and the “improvement of Total UPDRS scores versus placebo” value [10] was 4.2 points.
